Assay results as given in patent publication US9249115B2, “N,N1 substituted piperazines having combined antiaggregant, anticoagulant and vasodilatory activity, and method for producing same” (Vertex Closed Joint Stock Company, priority 2011, dated 2016).

Legend:
[1] = tested on: mesentery arterioles; test: Vasodilator properties, microcirculatory vessel responsiveness to noradrenalin, arterioles; assay type: in vivo, Wistar male rats
Method: (§1) Vasodilator properties of N,N′-substituted piperazines were evaluated according to their influence on microcirculatory vessel responsiveness.
(§2) The studies were done on Wistar male rats with mass of 300±30 g (laboratory animals nursery “Rappolovo”, RAMS). The animals were kept with unlimited food (standard ration for laboratory rats K-120 by <<Inform-korm>>, Russia) and water allowance.
(§3) The solutions of N,N′-substituted piperazines and physiological (control) solution were introduced via bolus injection within 1 min into caudal vein of non-anaesthetized animals according to the dosage of 5.0 ml per 1 kg. Immediately after the introduction the animals were put in separate standard cages for observation.
(§4) In 30 min after the injection the animals were anaesthetized (thiopental sodium, 60 mg/kg intraperitoneally). The loop of small intestine adjoined to mesoappendix was retrieved through inferomedian incision. To study microcirculation in mesentery venules and arterioles in transmitted light the rat was placed on thermostated microscope objective table. The application of noradrenalin solution (Aguettant, 2 mg/ml, Laboratoire AGUETTANT, France) was done directly on the mesentery (Furness J. B., Marshall J. M., 1974; Yantareva L. I., 2004).
(§5) The study of microcirculatory vessels was done with LUMAM I1 microscope (LOMO, Russia). The recording of video data was done with the camera (Optics and Electronics ISTA Ltd) attached to a personal computer. The processing of data was done with Video-Test 4.0 software (ISTA Ltd., Russia). The diameter of the vessel wall (D, m) before and after the application of noradrenalin and the starting time of blood flow slowdown induced by noradrenalin were measured (the measurements were done for 1 min after the application).

[2] = tested on: mesentery venules; test: Vasodilator properties, microcirculatory vessel responsiveness to noradrenalin, venules; assay type: in vivo, Wistar male rats
Method: as §1, §2, §3, §4, §5

[3] = tested on: experimental photothrombosis; test: Experimental photothrombosis model, arterial blood velocity; assay type: in vivo, Wistar male rats
Method: The studies were done on Wistar male rats with mass of 230±30 g (laboratory animals nursery “Rappolovo”, RAMS). The animals were kept with unlimited food (standard ration for laboratory rats K-120 by <<Inform-korm>>, Russia) and water allowance. […]
Thrombosis modeling: the drugs were introduced into left femoral vein, in 50 min afterwards 1 ml of Bengal rose A photosensitizer (Acros Organics, USA) solution was introduced with dose of 17 mg/kg [Boselli 2007, Petrischev 2009]. Then the incision of internal surface of animal right thigh about 2 cm in length was made. The section of the femoral vein about 5 mm in length was released from surrounding tissues and separated from neurovascular bundle. Beneath this section of the vein the black non-transparent plastic strip 3 mm in width was laid to screen off the vein and surrounding tissues from radiation. The irradiation was done using diode laser <<DPSS-laser>> (Diode Pumped Solid State Laser, South Korea) with 532 nm wavelength and 60 mW power. The area of irradiation was 1 mm^2, exposing time was 40 min. The blood flow in femoral artery was measured by high frequency Doppler ultrasonography method (<<Minimax-Doppler-K>> apparatus, frequency of sensor was 20 MHz). The blood velocity alteration due to irradiation was measured (Table 9).

[4] = in vivo; cited from earlier work
[5] = 0.01 mmol/kg, noradrenalin 10^−6 g/ml
[6] = 0.025 mmol/kg, noradrenalin 10^−7 g/ml

SMILES | % of vessel constriction [1, 5] [%] | Blood flow slowdown, Latent period of slowdown [1, 5] [s] | % of vessel constriction [1, 6] [%] | % of vessel constriction [2, 5] [%] | Blood flow slowdown, Latent period of slowdown [2, 5] [s] | % of vessel constriction [2, 6] [%] | V, cm/s (arterial blood velocity) ([3]; 0.01 mmol/kg, 0 min of irradiation) [cm/s] | V, cm/s (arterial blood velocity) ([3]; 0.01 mmol/kg, 10 min of irradiation) [cm/s] | V, cm/s (arterial blood velocity) ([3]; 0.01 mmol/kg, 20 min of irradiation) [cm/s] | V, cm/s (arterial blood velocity) ([3]; 0.01 mmol/kg, 30 min of irradiation) [cm/s] | V, cm/s (arterial blood velocity) ([3]; 0.01 mmol/kg, 40 min of irradiation) [cm/s] | V, cm/s (arterial blood velocity) ([3]; 0.025 mmol/kg, 0 min of irradiation) [cm/s] | V, cm/s (arterial blood velocity) ([3]; 0.025 mmol/kg, 10 min of irradiation) [cm/s] | V, cm/s (arterial blood velocity) ([3]; 0.025 mmol/kg, 20 min of irradiation) [cm/s] | V, cm/s (arterial blood velocity) ([3]; 0.025 mmol/kg, 30 min of irradiation) [cm/s] | V, cm/s (arterial blood velocity) ([3]; 0.025 mmol/kg, 40 min of irradiation) [cm/s] | dermal reactions that lead to treatment cessation [4] | gastrointestinal reactions that lead to treatment cessation [4]
COc1ccc(CN2CCN(CC(CS(=O)(=O)[O-])OS(=O)(=O)[O-])CC2)c(OC)c1OC.[Na+].[Na+] (stereo not drawn) [Example 14, 2-sulfooxy-3-(4-((2,3,4-trimethoxyphenyl)-methyl)piperazine-1-yl)propane-1-sulfonic acid disodium salt monohydrate] | 58 | 43 ± 4 | 28 | 33 | 41 ± 6 | 22 | 6.9 ± 3.2 | 7.00 ± 2.0 | 6.8 ± 2.0 | 6.9 ± 1.3 | 6.6 ± 1.4 | 8.3 ± 1.8 | 8.1 ± 1.3 | 8.3 ± 2.0 | 8.0 ± 1.3 | 8.2 ± 1.2 |  | 
Clc1ccccc1CN1CCc2sccc2C1 [ticlopidine] |  |  |  |  |  |  |  |  |  |  |  |  |  |  |  |  | 4-15% | up to 20%
